Test results: patent publication US10201507B2, “Modulators of intracellular chloride concentration for treating fragile X syndrome” (NEUROCHLORE, priority 2012, dated 2019)

Test system: hippocampal CA3 pyramidal neurons
Assay: DFGABA in offspring at P15 after maternal pretreatment
Type: in vivo, mouse
Protocol: Mice lacking Fmr1 (referred to as Fmr1^−/−) were bred in our animal facility. […] For all experiments, Fmr1^−/− mice were used with wild-type littermates as a control group. The offspring were used for experiments at E18, P0, P2, P4, P7, P9, P15 and P30. Experiments were carried out on offspring of either sex and in a blind manner at E18 and P0. Hippocampal slices (300-500 μm thick) were prepared using a Microm tissue slicer (International GmbH, Germany) as described previously (Tyzio et al., 2006, 2008). Slices were kept in oxygenated (95% O2/5% CO2) artificial cerebrospinal fluid (ACSF) of the following composition (in mM): […] For recordings, slices were placed into a conventional fully submerged chamber superfused with ACSF at a rate of 2-3 ml/min at room temperature. Patch clamp recordings from visually identified CA3 pyramidal cells in cell-attached configuration were performed using EPC-10 amplifier (HEKA Elektronik Dr. Schulze GmbH, Lambrecht/Pfalz, Germany). Patch pipette solution for recordings of single GABAA channels contained (in mM): NaCl 120, KCl 5, TEA-Cl 20, 4-aminopyridine 5, CaCl2 0.1, MgCl2 10, glucose 10, Hepes-NaOH 10 buffered to pH 7.2-7.3 and GABA 2 μM. Analysis of currents through single channels and current-voltage relationships were performed using Clampfit 9.2 (Axon Instruments, Union City, Calif.). […]

CCCCNc1cc(C(=O)O)cc(S(N)(=O)=O)c1Oc1ccccc1 [bumetanide]
average DFGABA (P15 FXS mice, maternal pretreatment orally 1 day before delivery, 2-2.5 mg/kg in drinking water): 1.0±1.1 mV | Effect on DFGABA in offsprings (in words) (P15 FXS, maternal pretreatment): restored control DFGABA values
